Experimental data reported in article PMC6589325, “Evaluation of Anti-HIV-1 Integrase and Anti-Inflammatory Activities of Compounds from Betula alnoides Buch-Ham” (Advances in Pharmacological Sciences, 2019).
Read-outs that look alike come from different tables or passages of the source.

Experiments:
HIV-1 IN [1] = biological target: T1, HIV-1 IN (Human immunodeficiency virus type 1 group M subtype B, UniProt P04585); details: cited from earlier work; for IC50: read-out: IC50 against HIV-1 IN (converted); for Effect against HIV-1 IN: isolated from Coleus parvifolius
T1 construct: using HIV-1 IN enzymes according to the multiplate integration assay (MIA)

[2] = system: LPS-induced nitric oxide production in RAW264.7 cells; assay: Inhibitory effect on LPS-induced nitric oxide (NO) production in RAW264.7 cells (Griess reagent); type: cell-based; details: for IC50: read-out: IC50, inhibition of LPS-induced NO production; for inhibition at 3 µM / inhibition at 10 µM / inhibition at 30 µM / inhibition at 100 µM: read-out: % Inhibition at various concentration (μM), NO production
Protocol: To evaluate the anti-inflammatory activity, an inhibitory effect on nitric oxide (NO) production was carried out according to the previous report described by Sudsai et al.. Briefly, RAW264.7 cells were seeded onto 96-well plates (1 × 10^5 cells/well) and were maintained to adhere at 37°C for 1 h in a CO2 incubator containing 5% CO2. They were then cultured in RPMI-1640 medium containing lipopolysaccharide (LPS, 100 ng/ml) together with the test compounds at various concentrations (3–100 μM). After 24 h of incubation, the nitrite (NO^2–) concentration in the culture medium was determined as an indicator of NO production using the Griess reagent to assay the accumulation of NO^2–, a stable metabolite of NO. The absorbance was measured using a microplate reader at 570 nm. In this study, NO synthase inhibitor (L-nitro-arginine, L-NA), nuclear translocation of NF-κB inhibitor (caffeic acid phenethyl ester, CAPE) and nonsteroidal anti-inflammatory drug, NSAID (indomethacin), were used as positive controls.

HIV-1 IN [3] = biological target: T1, HIV-1 IN; assay: HIV-1 IN inhibitory activity, multiplate integration assay (MIA); type: biochemical
Protocol: The anti-HIV IN activity of isolated compounds was determined in an in vitro model using HIV-1 IN enzymes according to the multiplate integration assay (MIA) as previously described. Briefly, a mixture (45 μL) composed of 12 μL of IN buffer (containing 150 mM 3-(N-morpholino)propanesulfonic acid, pH 7.2 (MOPS), 75 mM MnCl2, 5 mM dithiothreitol (DTT), 25% glycerol, and 500 μg/mL bovine serum albumin), 1 μL of 5 pmol/mL digoxigenin-labeled target DNA, and 32 μL of sterilized water was added into each well of a 96-well plate. Subsequently, 6 μL of sample solution in DMSO and 9 μL of a 1/5 dilution of the IN enzyme were added to each well and incubated at 37°C for 80 min. After washing the plate three times with PBS with 0.05% Tween 20 (PBST), 100 μL of 500 mU/mL alkaline phosphatase- (AP-) labeled anti-digoxigenin antibody was added and incubated at 37°C for 1 h. The plates were washed with PBS three times. Then, AP buffer (150 μL) containing 100 mM Tris-HCl (pH 9.5), 100 mM NaCl, 5 mM MgCl2, and 10 mM p-nitrophenyl phosphate was added to each well and incubated at 37°C for 1 h. Finally, the absorbance of p-nitrophenol, the final product of the integration reaction, was measured with a microplate reader (Rayto, RT-2100C) at a wavelength of 405 nm. Suramin, a polyanionic HIV-1 IN inhibitor, was used as a positive control.

[4] = system: RAW264.7 macrophage cells; assay: Viability assay of RAW264.7 macrophage cells (MTT); details: 24 h, cytotoxic when viability less than 80% of control
Protocol: The cytotoxicity of the test compounds after 24 h of incubation was determined by the colorimetric method described by Sudsai et al.. A volume of 10 μl of MTT solution (5 mg/ml in PBS) was added to each well of 96-well plates and further incubated in a CO2 incubator for 4 h. The formazan products generated by MTT reduction were dissolved in DMSO. At last, the medium was removed, 100 μl of DMSO was then added to each well and thoroughly mixed by gently tapping on the test plate. The absorbance of formazan solution was measured at a wavelength of 570 nm using a microplate reader. The test compounds were considered to be cytotoxic when the viability of the compound-treated group was less than 80% of that in the control (1% DMSO-treated) group.

[5] = Mus musculus, RAW264.7, 3 μM, LPS 100 ng/ml, 24 h
[6] = Mus musculus, RAW264.7, 10 μM, LPS 100 ng/ml, 24 h
[7] = Mus musculus, RAW264.7, 30 μM, LPS 100 ng/ml, 24 h
[8] = Mus musculus, RAW264.7, 100 μM, LPS 100 ng/ml, 24 h
[9] = Mus musculus, RAW264.7 cells, LPS 100 ng/ml, 24 h
[10] = read-out: % Inhibition at various concentrations
[11] = mean ± S.E.M. of four determinations, read-out: IC50, anti-HIV-1 integrase activity

SMILES	inhibition at 3 µM [2, 5] [%]	inhibition at 10 µM [2, 6] [%]	inhibition at 30 µM [2, 7] [%]	inhibition at 100 µM [2, 8] [%]	IC50 [2, 9] [µM]	inhibition at 10 µM (HIV-1 IN [3]; [10]) [%]	inhibition at 30 µM (HIV-1 IN [3]; [10]) [%]	inhibition at 100 µM (HIV-1 IN [3]; [10]) [%]	IC50 (HIV-1 IN [3]; [11]) [µM]	other results
Oc1cc(O)c2c(c1)O[C@H](c1ccc(O)c(O)c1)[C@@H](O)C2 [(+)-Catechin]	–	–	–	–	–	–	–	–	–	IC50 (HIV-1 IN [1]; isolated from Albizia procera bark): 46.3 µM
O=C(/C=C/c1ccc(O)cc1)CC(=O)/C=C/c1ccc(O)cc1 [bisdemethoxycurcumin]	–	–	–	–	–	–	–	–	–	IC50 (HIV-1 IN [1]; from rhizomes of Boesenbergia kingii): 47.7 µM
O=C(O)c1ccc(O)c(O)c1 [protocatechuic acid]	–	–	–	–	–	–	–	–	–	% inhibition of HIV-1 IN (HIV-1 IN [1]; 100 μM): 46.0%
NC(=NCCC[C@H](N)C(=O)O)N[N+](=O)[O-] [L-NA, L-nitro-arginine, reference compound]	–	–	–	–	–	–	–	–	–	% Inhibition at various concentration (μM), NO production ([2]; 3 μM, LPS 100 ng/ml, 24 h): 19.3 ± 4.7%; % Inhibition at various concentration (μM), NO production ([2]; 10 μM, LPS 100 ng/ml, 24 h): 22.1 ± 1.9%; % Inhibition at various concentration (μM), NO production ([2]; 30 μM, LPS 100 ng/ml, 24 h): 32.6 ± 3.5%; % Inhibition at various concentration (μM), NO production ([2]; 100 μM, LPS 100 ng/ml, 24 h): 79.7 ± 4.8%; IC50 ([2]; RAW264.7 cells, LPS 100 ng/ml, 24 h): 40.4 ± 6.1 µM
C=C(C)[C@@H]1CC[C@]2(C)CC[C@]3(C)[C@H](CC[C@@H]4[C@@]5(C)CC[C@H](O)C(C)(C)[C@@H]5CC[C@]43C)[C@@H]12 [Lupeol (3), lupeol]	6 ± 1.7	11.4 ± 2.7	23.4 ± 1.9	78.2 ± 1	47.3 ± 1	12.2 ± 1.3	25.9 ± 2	40.6 ± 1.8	> 100	IC50, anti-HIV-1 integrase activity (HIV-1 IN [3]; mean ± S.E.M. of four determinations): inactive; Cytotoxicity to RAW 264.7 cells [4]: caused cytotoxicity
C[C@H]1[C@H](C)CC[C@]2(C(=O)O)CC[C@]3(C)C(=CC[C@@H]4[C@@]5(C)CC[C@H](O)C(C)(C)[C@@H]5CC[C@]43C)[C@H]12 [Ursolic acid (5), ursolic acid]	5.4 ± 2.3	10.2 ± 3.2	13.6 ± 3.2	67.1 ± 1.8	68.7 ± 5.9	31.6 ± 0.9	48.5 ± 1.2	60.2 ± 2.1	35 ± 1	–
C=C(C)[C@@H]1CC[C@]2(C(=O)O)CC[C@]3(C)[C@H](CC[C@@H]4[C@@]5(C)CC[C@H](O)C(C)(C)[C@@H]5CC[C@]43C)[C@@H]12 [Betulinic acid (1), betulinic acid]	14.6 ± 2.3	22.1 ± 1.2	49.4 ± 3.2	79.5 ± 1.7	31 ± 1.9	39 ± 2.3	53.2 ± 1.2	65.6 ± 2.1	24.8 ± 1.3	–
C=C(C)[C@@H]1CC[C@]2(CO)CC[C@]3(C)[C@H](CC[C@@H]4[C@@]5(C)CC[C@H](O)C(C)(C)[C@@H]5CC[C@]43C)[C@@H]12 [Betulin (2), betulin]	–	–	–	–	–	41.2 ± 1.5	57.6 ± 1.2	70.7 ± 2.1	17.7 ± 0.6	inhibition at 3 µM ([2]; Mus musculus, RAW264.7, 24 h): 2.9 ± 1.9%; inhibition at 10 µM ([2]; Mus musculus, RAW264.7, 24 h): 13 ± 1.6%; inhibition at 30 µM ([2]; Mus musculus, RAW264.7, 24 h): 58 ± 1.1%; inhibition at 100 µM ([2]; Mus musculus, RAW264.7, 24 h): 81.8 ± 1.2%; IC50 ([2]; Mus musculus, RAW264.7, 24 h): 30.1 ± 0.3 µM; Cytotoxicity to RAW 264.7 cells [4]: caused cytotoxicity
CN1C[C@H](O)C[C@H]1C(=O)O [N-methyl-trans-4-hydroxy-L-proline]	–	–	–	–	–	–	–	–	–	IC50 (HIV-1 IN [1]; from Aglaia andamanica leaves): 81.3 µM
Oc1cc(O)c2c(c1)CCc1cc(O)c(O)cc1-2 [2,4,6,7-tetrahydroxy 9,10-dihydrophenanthrene]	–	–	–	–	–	–	–	–	–	IC50 (HIV-1 IN [1]; from bulbils of Dioscorea bulbifera): 14.2 µM
COc1ccc2c(c1)c(CC(=O)O)c(C)n2C(=O)c1ccc(Cl)cc1 [Indomethacin, indomethacin, reference compound]	32 ± 2.6	43.8 ± 1.2	54.1 ± 2	79 ± 1.4	17.6 ± 1.6	–	–	–	–	–
Cc1ccc(C(=O)Nc2ccc(S(=O)(=O)O)c3cc(S(=O)(=O)O)cc(S(=O)(=O)O)c23)cc1NC(=O)c1cccc(NC(=O)Nc2cccc(C(=O)Nc3cc(C(=O)Nc4ccc(S(=O)(=O)O)c5cc(S(=O)(=O)O)cc(S(=O)(=O)O)c45)ccc3C)c2)c1 [Suramin, reference compound]	–	–	–	–	–	70.9 ± 1.5	93.3 ± 1.3	99.9 ± 1.7	2.8 ± 0.1	inhibition at 1 µM (HIV-1 IN [3]; 1 μM, read-out: % Inhibition at various concentrations): 32.1 ± 0.6%; inhibition at 3 µM (HIV-1 IN [3]; 3 μM, read-out: % Inhibition at various concentrations): 50.3 ± 1.6%; IC50 (HIV-1 IN [3]; mean ± S.E.M. of four determinations, read-out: IC50, anti-HIV-1 IN activity of B. alnoides extract and its fractions (converted)): 3.01 µM
COc1cc(O)c2c(=O)cc(-c3ccc(O)c(O)c3)oc2c1 [luteolin 7-methyl ether]	–	–	–	–	–	–	–	–	–	Effect against HIV-1 IN (HIV-1 IN [1]): potent
O=C(/C=C/c1ccc(O)c(O)c1)OCCc1ccccc1 [CAPE, caffeic acid phenethyl ester, reference compound]	22.7 ± 3.1	48.6 ± 0.7	66.8 ± 0.5	85.9 ± 1	12.3 ± 0.8	–	–	–	–	–
CC1(C)CC[C@]2(C(=O)O)CC[C@]3(C)C(=CC[C@@H]4[C@@]5(C)CC[C@H](O)C(C)(C)[C@@H]5CC[C@]43C)[C@@H]2C1 [Oleanolic acid (4), oleanolic acid]	10.9 ± 1.8	18.4 ± 1.2	28.2 ± 3.2	63.4 ± 1	62.8 ± 3.6	33.4 ± 1.8	49.1 ± 2.2	65.5 ± 1.5	–	IC50 (HIV-1 IN [3]; IC50, anti-HIV-1 integrase activity, mean ± S.E.M. of four determinations): 30.3 ± 1.3 µM
O=c1cc(-c2ccc(O)c(O)c2)oc2cc(O)cc(O)c12 [luteolin]	–	–	–	–	–	–	–	–	–	Effect against HIV-1 IN (HIV-1 IN [1]): potent
